Patent publication US12377086B2, “Therapeutic methods, combinations and kits” (priority 2021, dated 2025)
Like-named read-outs stand apart in the source and are kept apart here.

Experiments:
Test in all cases: biochemical
VIM-2 [1] = target: T1, VIM-2 (Pseudomonas aeruginosa, UniProt Q5U7L7)
Experimental: (§1) The pET24a-VIM-2 plasmid was transformed into competent BL21 (DE3) E. coli cells. The cells were plated onto an LB-agar plate with kanamycin (25 μg/mL) and incubated overnight at 37° C. A single colony was used to inoculate 50 mL of LB, containing 25 μg/mL kanamycin, and the culture was shaken overnight at 37° C. From the overnight culture, 10 mL were transferred to 4×IL LB medium containing 25 μg/mL kanamycin. The cultures were grown at 37° C. until an optical density (OD600 nm) of 0.6-0.8 was reached, at which point protein production was induced with IPTG (0.5 mM) and ZnCl2 (100 μM). The temperature was reduced to 20° C., and the cells were shaken for an additional 18 h. The cultures were harvested by centrifugation (8 Kxg) for 10 min at 4° C. The resulting pellets were re-suspended in 25 mL of 50 mM HEPES, pH 7.5, containing 500 mM NaCl (buffer B). The cells were lysed with three passes through a French Press. The lysate was centrifuged (15 Kxg) for 30 min at 4° C. The supernatant was dialyzed against 2 L of 50 mM HEPES, pH 7.5 (buffer A), for 4 h. Buffer A was used to equilibrate a 25 mL Q-Sepharose column using an FPLC. The sample was loaded onto the column, and proteins were eluted with a linear gradient 0-500 mM NaCl with buffer B. Fractions containing VIM-2, determined by SDS-PAGE, were pooled and concentrated to 2-3 mL in an Amicon ultraconcentrator equipped YM-10 membrane. Further purification was conducted with a Sephacryl S-200 gel filtration column using 50 mM HEPES, pH 7.5, containing 150 mM NaCl. Fractions containing pure VIM-2 were pooled, and metal analysis was performed.
(§2) To identify potential MBL inhibitors, the relative change in the formation of hydrolyzed nitrocefin between treated and untreated MBL was determined as percentage inhibition. 5 nM of each BML was pre-incubated for 10 mins with 50 μM of each compound, followed by the addition of 10 μM nitrocefin.
(§3) Each MBL was incubated with 50 μM of each compound, followed by the addition of nitrocefin. The relative change in absorbance is reported as percentage inhibition.

NDM-1 = NDM-1 (Klebsiella pneumoniae, UniProt C7C422)
Experimental: BL21 (DE3) E. coli cells containing the pET26b-ndm-1 plasmid were used to inoculate a 50 mL LB starter culture containing kanamycin (25 μg/mL). The culture was grown overnight at 37° C. The starter culture was then used to inoculate 4×1 L LB containing kanamycin (25 μg/mL). These flasks were incubated at 37° C. until culture reached an optical density of (OD600) of 0.6 to 0.8. The incubator was then set to 22° C. and the cultures were shaken for 30 min to allow them to cool. ZnCl2 ([…]) and IPTG (0.5 mM) were then added to the cultures and they were grown for 18 h at 22° C. The cells were then harvested using centrifugation (8000×g) for 10 min. The pellet was resuspended with 25 mL 50 mM HEPES, pH 7.5 containing 500 mM NaCl (Buffer B). Lysis was performed with three passes through a French Press. The lysate was centrifuged for 30 min (15,000×g) at 4° C. The supernatant was then dialyzed versus 2 L 50 mM HEPES, pH 7.5 (Buffer C) for 4 h. An FPLC was used to equilibrate a Q-Sepharose column using buffer C using a flowrate of 2.0 mL/min for 1.5 h. The lysate was then loaded onto the column and eluted with a linear NaCl gradient from 0-500 mM. Fractions containing NDM-1 were identified with SDS-PAGE. These fractions were pooled and concentrated to 2-3 mL in an Amicon ultracentrifugation concentrating unit with a YM-10 membrane. The resulting protein mixture was then loaded onto a Sephacryl S-200 gel filtration column run with 50 mM HEPES, pH 7.5 containing 150 mM NaCl (Buffer A). SDS-PAGE was used to identify fractions containing pure protein.
as §2, §3

VIM-2 [2] = target: T1, VIM-2; remark: listed apart in the source
Experimental: as §1, with “Further purification was conducted with a Sephacryl S-200 gel filtration column using 50 mM HEPES, pH 7.5, containing 150 mM NaCl.” left out
The enzyme inhibition constant (Ki) was derived from initial-velocity measurements by nonlinear regression using competitive-inhibition enzyme kinetics using Graphpad Prism 6.

[3] = 50 μM compound, 5 nM MBL, 10 μM nitrocefin, 30 mins, read-out: VIM-2 percentage inhibition
[4] = 50 μM compound, 5 nM MBL, 10 μM nitrocefin, 30 mins, read-out: NDM-1 percentage inhibition
[5] = 50 μM compound, 5 nM MBL, 10 μM nitrocefin, 30 mins
[6] = read-out: VIM-2 percentage inhibition
[7] = 5 nM MBL, 10 μM nitrocefin, read-out: VIM-2 IC50
[8] = nitrocefin substrate, competitive-inhibition fit, read-out: VIM-2 Ki
[9] = read-out: NDM-1 percentage inhibition, 50 μM compound, 5 nM MBL, 10 μM nitrocefin, 30 mins

Chain of NDM-1 (C7C422 whole entry, looked up, species assumed): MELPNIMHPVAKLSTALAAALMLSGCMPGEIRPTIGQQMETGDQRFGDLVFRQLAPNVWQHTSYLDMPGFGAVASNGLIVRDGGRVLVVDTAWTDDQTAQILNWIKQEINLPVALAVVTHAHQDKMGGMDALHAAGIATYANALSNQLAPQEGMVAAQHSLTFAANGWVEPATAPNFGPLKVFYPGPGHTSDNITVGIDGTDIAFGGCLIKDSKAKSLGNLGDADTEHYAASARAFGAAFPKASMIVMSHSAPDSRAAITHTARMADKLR

Row | inhibition at 50 µM (VIM-2 [1]; [3]) | inhibition at 50 µM (NDM-1; [4]) | SMILES | VIM-2 percentage inhibition (VIM-2 [1]; [5]) | other results
1 | 21% | 8% | Sc1nccc(-c2cccs2)n1 [Compound 10] | – | –
2 | – | – | Oc1ccc2cccnc2c1 [Compound 37] | 3% | NDM-1 percentage inhibition (NDM-1; [5]): 8%
3 | 22% | 18% | CC(=O)c1ccc(O)c(O)c1O [Compound 12] | – | –
4 | 25% | 53% | Cc1ccc(O)c(CO)n1 [Compound 28] | – | –
5 | 22% | 46% | Cc1nc2ccccc2c(=O)n1O [Compound 19] | – | –
6 | 18% | – | CC(C)c1cc(C(=O)O)nc2[nH][nH]c(=O)c12 [Compound 29] | – | –
7 | 25% | 51% | O=c1c(-c2cccs2)[n+]([O-])c2ccccc2n1O [Compound 23] | – | –
8 | 16% | – | Cc1cc(C)n(-c2nc3ccccc3c(=O)n2O)n1 [Compound 20] | – | –
9 | 17% | 54% | Cc1cc(C(=O)O)nc(O)n1 [Compound 27] | – | –
10 | – | – | O=C(O)c1cc(O)cc(C(=O)O)n1 [Compound 25] | – | inhibition at 50 µM (VIM-2 [1]; [6]): 27%
11 | 20% | 50% | Cc1cc(C(=O)O)nc2[nH]c(=S)[nH]c(=O)c12 [Compound 11] | – | –
12 | – | – | Oc1c(Cl)cc(Cl)c2cccnc12 [Compound 47] | 96% | IC50 (VIM-2 [2]; [7]): 4.1 µM; Ki (VIM-2 [2]; [8]): 1.1 µM
13 | 5% | 58% | CC(C)Cc1cc(C(=O)O)nc(O)n1 [Compound 26] | – | –
14 | – | – | O=C(O)c1ccnc2c(O)cccc12 [Compound 44] | 92% | –
15 | 9% | 12% | O=c1c(-c2ccco2)[n+]([O-])c2ccccc2n1O [Compound 22] | – | –
16 | – | – | Oc1cccc2ncccc12 [Compound 35] | 6% | NDM-1 percentage inhibition (NDM-1; [5]): 6%
17 | – | – | Oc1ccc(Cl)c2cccnc12 [Compound 46] | 98% | IC50 (VIM-2 [2]; [7]): 4.1 µM; Ki (VIM-2 [2]; [8]): 0.96 µM
18 | 4% | 51% | O=C(O)c1c(O)cccc1O [Compound 14] | – | –
19 | 8% | 49% | O=C(NO)c1n[nH]c(Cl)n1 [Compound 16] | – | –
20 | – | – | Oc1ccc2ncccc2c1 [Compound 36] | 7% | NDM-1 percentage inhibition (NDM-1; [5]): 1%
21 | – | – | [O-][n+]1cccc2cccc(O)c21 [Compound 39] | 27% | NDM-1 percentage inhibition (NDM-1; [5]): 7%

Row | inhibition at 50 µM (VIM-2 [1]; [3]) | inhibition at 50 µM (NDM-1; [4]) | SMILES | VIM-2 percentage inhibition (VIM-2 [1]; [5]) | other results
22 | – | – | Oc1ccnc(S)n1 [Compound 6] | – | inhibition at 50 µM (VIM-2 [1]; [6]): 13%; inhibition at 50 µM (NDM-1; [9]): 48%
23 | – | – | Oc1cnc2ccccc2c1 [Compound 33, 3-hydroxyquinoline] | – | inhibition at 50 µM (VIM-2 [1]; read-out: VIM-2 percentage inhibition, 50 μM compound, 5 nM MBL, 10 μM nitrocefin, 30 mins): 95%; inhibition at 50 µM (NDM-1; [9]): 33%
24 | – | – | Oc1ccnc2ccccc12 [Compound 34] | 9% | NDM-1 percentage inhibition (NDM-1; [5]): 1%
25 | 21% | 66% | Cc1cc(C(=O)O)nc2[nH][nH]c(=O)c12 [Compound 30] | – | –
26 | 27% | – | O=c1c2ccccc2[nH]c(=S)n1O [Compound 21] | – | –
27 | – | – | Cc1ccc2c(Cl)cc(Cl)c(O)c2n1 [Compound 50] | 95% | IC50 (VIM-2 [2]; [7]): 4.8 µM; Ki (VIM-2 [2]; [8]): 0.96 µM
28 | – | – | O=C(O)CC(S)C(=O)O (centres unmarked) [Compound 4] | – | inhibition at 50 µM (VIM-2 [1]; [6]): 22%; inhibition at 50 µM (NDM-1; [9]): 39%
29 | – | – | O=C(O)c1cccc(C(=O)O)n1 [Compound 24] | – | inhibition at 50 µM (VIM-2 [1]; [6]): 15%; inhibition at 50 µM (NDM-1; [9]): > 50%
30 | 29% | 43% | Sc1nccc(-c2ccccn2)n1 [Compound 9] | – | –
31 | – | – | Cc1ccc2cccc(O)c2n1 [Compound 40] | 77% | NDM-1 percentage inhibition (NDM-1; [5]): 9%
32 | 18% | 30% | O=C1c2ccccc2C(=O)N1O [Compound 18] | – | –
33 | 9% | 44% | Nc1nc(S)ncc1C(=O)O [Compound 7] | – | –
34 | – | – | Nc1ccc(O)c2ncccc12 [Compound 42] | 96% | IC50 (VIM-2 [2]; [7]): 3.8 µM; Ki (VIM-2 [2]; [8]): 0.88 µM
35 | – | – | Oc1c(Br)cc(Br)c2cccnc12 [Compound 49] | 92% | –
36 | – | – | Nc1cccc2cccnc12 [Compound 38] | 43% | NDM-1 percentage inhibition (NDM-1; [5]): 3%
37 | 16% | 55% | CCOC(=O)CS [Compound 2] | – | –
38 | – | – | O=C(O)c1cnc2c(O)cccc2c1 [Compound 43] | 91% | IC50 (VIM-2 [2]; [7]): 1.6 µM; Ki (VIM-2 [2]; [8]): 0.53 µM
39 | 18% | 63% | Cc1nc(S)nc(O)c1CC(=O)O [Compound 8] | – | –
40 | 18% | – | O=C(CCCCCCC(=O)Nc1ccccc1)NO [Compound 15, SAHA, reference compound] | – | –
41 | – | – | Oc1ccc2ccccc2n1 [Compound 32] | 9% | NDM-1 percentage inhibition (NDM-1; [5]): 0%
42 | 17% | 50% | CC(S)C(=O)O (centres unmarked) [Compound 3] | – | –

Row | SMILES | inhibition at 50 µM (VIM-2 [1]; [3]) | inhibition at 50 µM (NDM-1; [4]) | VIM-2 percentage inhibition (VIM-2 [1]; [5]) | other results
43 | O=C1[C@@H](c2ccccc2)SCN1O [Compound 17] | 40% | 40% | 33% | IC50 (VIM-2 [2]): 41 µM; Ki (VIM-2 [2]): 5.3 µM
44 | O=C(c1ccc(O)cc1)c1ccc(O)c(O)c1O [Compound 13] | 40% | 40% | 48% | NDM-1 percentage inhibition (NDM-1; [5]): 36%; IC50 (VIM-2 [2]): 81 µM; Ki (VIM-2 [2]): 8.8 µM
45 | O=C(O)/C(S)=C\c1cccnc1 [Compound 5] | 40% | 40% | – | NDM-1 percentage inhibition (NDM-1; [5]): 39%; IC50 (VIM-2 [2]): 24 µM; Ki (VIM-2 [2]): 4.5 µM
